Measured values taken from patent publication US20240246918A1, “COMPOUNDS AND COMPOSITIONS AS EIF4E INHIBITORS AND THE USES THEREOF” (Ribometrix, Inc., priority 2022, published 2024).
Like-named read-outs stand apart in the source and are kept apart here.

Key:
human eIF4E protein = target: T1, human eIF4E protein (Homo sapiens, UniProt P06730); test: Biochemical competitive binding assay (TR-FRET competition, EDA-m7GDP-ATTO-647N probe); settings: read-out: hEIF4E TR-FRET IC50
T1 construct: purchased Novus NBP-45314
In short: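 His-tagged human eIF4E (4 nM) was preincubated with Eu-anti-His antibody (2.5 nM) and added to compound (11-point, 4-fold dilutions) for 15 min. Then 5 nM EDA-m7GDP-ATTO-647N was added for 15 min, in HEPES pH 7.5, 100 mM KCl. The 665/620 TR-FRET ratio was normalized to controls, and IC50 was taken from 4-parameter fits.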

[1] = system: cap-dependent translation in Flp-In-293 reporter cells; test: Cellular cap-dependent translation inhibition assay (dual luciferase assay, DLA; Fluc/Rluc ratio, 24 hours); type: cell-based; settings: dual luciferase assay, Flp-In-293 reporter cells, 24 hours, Fluc/Rluc ratio, read-out: DLA 205 IC50
[2] = system: COLO 205 colorectal tumor cells; test: Tumor cell viability inhibition assay (CellTiter-Glo 2.0, 72 hours); type: cell-based; settings: COLO 205 cell viability
In short: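 COLO 205 cells (1500/well, RPMI-1640 + 10% FBS) exposed for 72 h to an 11-point, 4-fold dilution series; cellular ATP read by CellTiter-Glo 2.0 luminescence. Data normalized to DMSO and maximum-inhibition controls; IC50 from 4-parameter curve fit.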

[3] = system: cyclin D1 protein levels in COLO 205 cells; test: Cyclin D1 cellular inhibition assay (HTRF, 6 hours); type: cell-based; settings: 6 hours of compound treatment, Cyclin D1 protein levels by HTRF, read-out: COLO 205 6 h Cyclin D1 TR-FRET IC50
In short: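 COLO 205 cells in RPMI-1640 with 10% FBS treated 6 h with 11-point compound dilutions at 1% DMSO final. Lysates assayed for cyclin D1 by HTRF. Signal normalized to DMSO and maximum-inhibition controls, with IC50 from 4-parameter fit.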

T1 sequence (P06730 whole entry): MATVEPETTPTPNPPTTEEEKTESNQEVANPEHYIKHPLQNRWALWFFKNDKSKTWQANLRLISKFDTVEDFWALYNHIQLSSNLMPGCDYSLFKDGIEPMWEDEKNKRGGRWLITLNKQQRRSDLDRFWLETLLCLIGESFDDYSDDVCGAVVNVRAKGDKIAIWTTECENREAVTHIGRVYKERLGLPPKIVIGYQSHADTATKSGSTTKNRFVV

SMILES | IC50 (human eIF4E protein) [µM] | IC50 ([1]; Homo sapiens, Flp-In-293, 24 h) [µM] | IC50 ([2]; Homo sapiens, COLO 205, 72 h) [µM] | IC50 ([3]; Homo sapiens, COLO 205, 6 h) [µM] | IC50 [1] [µM] | IC50 [2] [µM] | IC50 [3] [µM]
Cc1nc2c(c(=O)n1CCOc1ccc(Cl)cc1-c1cccc(C(=O)O)c1)CC(N(C)C)CC2 (stereo not drawn) [Compound 1, 3-[5-chloranyl-2-[2-[6-[di(methyl)amino]-2-methyl-4-oxidanylidene-5,6,7,8-tetrahydroquinazolin-3-yl]ethoxy]phenyl]benzoic acid] | < 0.1 | < 1 | 5 to 20 | 5 to 20 | – | – | –
Cc1cc(-c2cc(Cl)ccc2OCCn2c(C)nc3c(c2=O)CC(N(C)C2CC2)CC3)c2scc(C(=O)NS(C)(=O)=O)c2n1 (stereo not drawn) [Compound 51] | < 0.1 | < 1 | < 5 | < 5 | – | – | –
Cc1cc(-c2cc(Cl)ccc2OCCn2c(C)nc3c(c2=O)CC(N2CCCCC2)CC3)c2scc(C(=O)NS(C)(=O)=O)c2n1 (single isomer, unassigned) [Compound 241] | < 0.1 | < 1 | < 5 | < 5 | – | – | –
Cc1cc(-c2cc(Cl)ccc2OCCn2c(C)nc3c(c2=O)CC(N(C)C)CC3)c2scc(C(=O)O)c2n1 (single isomer, unassigned) [Compound 14] | < 0.1 | – | – | – | 1 to 5 | 5 to 20 | > 20
Cc1cc(-c2cc(Cl)ccc2OCCn2c(C)nc3c(c2=O)CC(N(CC2CC(F)(F)C2)C2CC2)CC3)c2scc(C(=O)NS(C)(=O)=O)c2n1 (single isomer, unassigned) [Compound 260] | < 0.1 | < 1 | < 5 | < 5 | – | – | –
Cc1cc(-c2cc(Cl)ccc2OCCn2c(C)nc3c(c2=O)CC(N2CC4COCC4C2)CC3)c2scc(C(=O)O)c2n1 (single isomer, unassigned) [Compound 70] | < 0.1 | – | – | < 5 | < 1 | – | –
Cc1cc(-c2cc(Cl)ccc2OCCn2c(C)nc3c(c2=O)CC(N(C)C2(C4CCC4)CC2)CC3)c2scc(C(=O)O)c2n1 (single isomer, unassigned) [Compound 242] | < 0.1 | < 1 | < 5 | < 5 | – | – | –
CO[C@@H]1CCN([C@@H]2CCc3nc(C)n(CCOc4ccc(Cl)cc4-c4cc(C)nc5c(C(=O)O)csc45)c(=O)c3C2)C1 (single isomer, unassigned) [Compound 42] | < 0.1 | < 1 | < 5 | < 5 | – | – | –
Cc1cc(-c2cc(Cl)ccc2OCCn2c(C)nc3c(c2=O)CC(N(C)CC2(C)COC2)CC3)c2scc(C(=O)O)c2n1 (stereo not drawn) [Compound 18] | < 0.1 | < 1 | < 5 | < 5 | – | – | –
Cc1cc(-c2cc(Cl)ccc2OCCn2c(C)nc3c(c2=O)CC(N(CC2CC(F)(F)C2)C2CC2)CC3)c2scc(C(=O)O)c2n1 (single isomer, unassigned) [Compound 263] | < 0.1 | – | – | – | < 1 | < 5 | < 5
Cc1cc(-c2cc(Cl)ccc2OCCn2c(C)nc3c(c2=O)CC(N(C)C2CC2)CC3)c2scc(C(=O)O)c2n1 (stereo not drawn) [Compound 46] | < 0.1 | < 1 | < 5 | < 5 | – | – | –
Cc1cc(-c2cc(Cl)ccc2OCCn2c(C)nc3c(c2=O)C[C@H](N2CC[C@@H](F)C2)CC3)c2scc(C(=O)O)c2n1 (single isomer, unassigned) [Compound 328] | < 0.1 | < 1 | < 5 | < 5 | – | – | –
Cc1cc(-c2cc(Cl)ccc2OCCn2c(C)nc3c(c2=O)CC(N(C)C)CC3)c2scc(C(=O)O)c2n1 (single isomer, unassigned) [Compound 13] | < 0.1 | < 1 | < 5 | – | – | – | < 5
Cc1cc(-c2cc(Cl)ccc2OCCn2c(C)nc3c(c2=O)CC(N2CCCCC2)CC3)c2scc(C(=O)O)c2n1 (stereo not drawn) [Compound 11] | < 0.1 | < 1 | < 5 | < 5 | – | – | –
Cc1cc(-c2cc(Cl)ccc2OCCn2c(C)nc3c(c2=O)CC(N2CCCCC2)CC3)c2scc(C(=O)NS(C)(=O)=O)c2n1 (stereo not drawn) [Compound 31] | < 0.1 | < 1 | < 5 | < 5 | – | – | –
Cc1nc2c(c(=O)n1CC#Cc1ccc(Cl)cc1-c1ccnc3c(C(=O)O)csc13)C[C@H](N1CC[C@@H](F)C1)CC2 (single isomer, unassigned) [Compound 326] | < 0.1 | < 1 | < 5 | < 5 | – | – | –
Cc1cc(-c2cc(Cl)ccc2OCCn2c(C)nc3c(c2=O)CC(N2CCCCC2)CC3)c2scc(C(=O)NS(C)(=O)=O)c2n1 (single isomer, unassigned) [Compound 245] | < 0.1 | – | – | – | < 1 | 5 to 20 | 5 to 20
Cc1cc(-c2cc(Cl)ccc2OCCn2c(C)nc3c(c2=O)CC(N(CC2CC(F)(F)C2)C2CC2)CC3)c2scc(C(=O)NS(C)(=O)=O)c2n1 (single isomer, unassigned) [Compound 261] | < 0.1 | – | – | – | < 1 | < 5 | 5 to 20
Cc1cc(-c2cc(Cl)ccc2OCCn2c(C)nc3c(c2=O)CC(N(CC2CC(F)(F)C2)C2CC2)CC3)c2scc(C(=O)O)c2n1 (single isomer, unassigned) [Compound 257] | < 0.1 | < 1 | 5 to 20 | 5 to 20 | – | – | –
Cc1cc(-c2cc(Cl)ccc2OCCn2c(C)nc3c(c2=O)CC(N(C)C2(C4CCC4)CC2)CC3)c2scc(C(=O)NS(C)(=O)=O)c2n1 (single isomer, unassigned) [Compound 231] | < 0.1 | – | 5 to 20 | 5 to 20 | – | – | –
Cc1cc(-c2ccc(Cl)cc2OCCn2c(C)nc3c(c2=O)C[C@H](N(C)[C@H]2C[C@@](C)(O)C2)CC3)c2scc(C(=O)O)c2n1 (single isomer, unassigned) [Compound 229] | < 0.1 | – | > 20 | > 20 | – | – | –
Cc1cc(-c2cc(Cl)ccc2OCCn2c(C)nc3c(c2=O)CC(N(C)C2CC4(C2)CC(F)(F)C4)CC3)c2scc(C(=O)O)c2n1 (stereo not drawn) [Compound 203] | < 0.1 | – | < 5 | < 5 | – | – | –
Cc1cc(-c2cc(Cl)ccc2OCCn2c(C)nc3c(c2=O)CC(N2CC4(CCC(F)(F)CC4)C2)CC3)c2scc(C(=O)O)c2n1 (stereo not drawn) [Compound 161] | < 0.1 | – | < 5 | < 5 | – | – | –
Cc1cc(-c2cc(Cl)ccc2OCCn2c(C)nc3c(c2=O)C[C@H](N(C)[C@H]2CC[C@@](C)(O)CC2)CC3)c2scc(C(=O)O)c2n1 (single isomer, unassigned) [Compound 224] | < 0.1 | – | > 20 | > 20 | – | – | –
Cc1cc(-c2cc(Cl)ccc2OCCn2c(C)nc3c(c2=O)C[C@@H](N(C)[C@H]2CC[C@@](C)(O)CC2)CC3)c2scc(C(=O)NS(C)(=O)=O)c2n1 (single isomer, unassigned) [Compound 215] | < 0.1 | – | > 20 | > 20 | – | – | –
Cc1cc(-c2cc(Cl)ccc2OCCn2c(C)nc3c(c2=O)CC(N2CCc4[nH]ncc4C2)CC3)c2scc(C(=O)O)c2n1 (stereo not drawn) [Compound 159] | < 0.1 | – | > 20 | > 20 | – | – | –
Cc1cc(-c2cc(Cl)ccc2OCCn2c(C)nc3c(c2=O)CC(N2CCc4cccnc4C2)CC3)c2scc(C(=O)O)c2n1 (stereo not drawn) [Compound 165] | < 0.1 | – | < 5 | < 5 | – | – | –
Cc1cc(-c2cc(Cl)ccc2OCCn2c(C)nc3c(c2=O)CC(N2CCC(OCCO)CC2)CC3)c2scc(C(=O)O)c2n1 (stereo not drawn) [Compound 208] | < 0.1 | – | > 20 | > 20 | – | – | –
